Calls of active or inactive are those of the source. The rule behind the calls is not given here.

Common to all, as to format: cell-based
Assay [1] deals with NG108-15. The assay is described as follows: Agonist activity at AT2 receptor in rat and mouse hybridoma NG108-15 cells assessed as induction of neurite outgrowth at 100 nM after 3 days by phase contrast microscopy.
The test system of assay [2] is NG108-15. Kind of assay: Agonist activity at AT2 receptor in rat and mouse hybridoma NG108-15 cells assessed as induction of neurite outgrowth at 100 nM after 3 days in presence of 1 uM AT2 receptor antagonist PD 123,319 by phase contrast microscopy.
Assay [3] relates to NG108-15. The assay is described as follows: Antagonist activity at AT2 receptor in rat and mouse hybridoma NG108-15 cells assessed as reduction in angiotensin-2-induced neurite outgrowth at 100 nM after 3 days by phase contrast microscopy.

On to `CNCC(=O)N[C@@H](CCCNC(=N)N)C(=O)N[C@H](C(=O)N[C@@H](Cc1ccc(O)cc1)C(=O)N[C@H](C(=O)N[C@@H](Cc1cnc[nH]1)C(=O)N1CCC[C@H]1C(=O)N[C@@H](C)C(=O)O)C(C)C)C(C)C`, for which the outcome in the assay on NG108-15 [1] was Active. In addition, the result in the assay with NG108-15 [2] was inactive. Also, the inhibition result with NG108-15 [3] is “inactive”.
Consider `CC[C@H](C)[C@H](NC(=O)[C@@H]1CCCN1C(=O)[C@H](Cc1c[nH]cn1)NC(=O)[C@@H](NC(=O)[C@H](Cc1ccc(O)cc1)NC(=O)[C@@H](NC(=O)[C@H](CCCN=C(N)N)NC(=O)CNC)C(C)C)[C@@H](C)CC)C(=O)O`, for which, in the assay on NG108-15 [1], the outcome was Active. Further, the result with NG108-15 [2] was inactive. For the same compound, the inhibition result in the assay on NG108-15 [3] was “inactive”.
Consider `CC[C@H](C)[C@H](NC(=O)[C@H](Cc1ccc(O)cc1)NC(=O)[C@@H](NC(=O)[C@H](CCCNC(=N)N)NC(=O)[C@@H](N)CC(=O)O)C(C)C)C(=O)N[C@@H](Cc1cnc[nH]1)C(=O)N1CCC[C@H]1C(=O)N[C@@H](Cc1ccccc1)C(=O)O`, for which the outcome in the assay with NG108-15 [1] was Active. In addition, the outcome in the assay with NG108-15 [2] was inactive.
